Assay results taken from patent publication EP1925625A2, “Method for screening modulators of mitochondrial functionning and new modulators obtained” (Theraptosis S.A., priority 2002, dated 2008).

Key:
[1] = tested on: purified mouse liver mitochondria; test: Flow cytometric (real-time FCM) analysis of mitochondrial morphology (FSC/SSC) on isolated mitochondria; settings: for changes of mitochondrial size (FSC) and structure (SSC): 1-30 µM Calcium, 20 µM CCCP or alamethicin added to isolated mitochondria; for effect on alamethicin induced MMP: pre-treatment with inhibitor, then alamethicin (5 µg/ml)
Description: (§1) Liver mitochondria were isolated from 3-4 weeks old Balb-c mice (IFFA CREDO, Saint Germain sur l'Arbresle, France). Animals were fasted overnight before being killed by […] dislocation. Liver mitochondria were prepared as described (Jacotot, 2000). All steps were carried out at 4°C. Finally, the organelles were resuspended in 'swelling buffer', composed by 200 mM sucrose, 5 mM succinate, 10 mM Tris-MOPS (pH 7.4), 1 mM H3PO4, 2 µM Rotenone, and 10 µM EGTA at pH=7.4. Spectrophotometric and flow cytometric analyses were performed in this buffer. The protein content of isolated mitochondria was determined by the Bradford assay.
Fluorescence-activated flow cytometry was performed using a 3-color FACSCalibur cytometer equipped with a 15 mW air-cooled 488 nm argon laser (Becton Dickinson, San Jose, CA). Mitochondria analyses were performed after appropriate settings of the Forward angle light scatter (FSC) - Side angle light scatter (SSC) detectors (see Fig. 1). Discrimination between mitochondria and cellular debris and noise background was performed by an appropriate gating on FSC-SSC scatter plots (Fig. 1)(Radcliff G, Jaroszeski MJ 1998 Methods Mol Biol 91:1-24 Basics of flow cytometry). Systematic confirmation of the validity of this gating was obtained by a labeling of mitochondria with the ΔΨm-insensitive mitochondrial dye MitoTracker® Green (MTG, Molecular Probes, Eugene, OR) (Jacotot et al., 2001). Briefly mitochondria (1.5 µg proteins) were respuspended in 400 µl swelling buffer containing 200 nM MTG for 15 min at room temperature. The organelles were immediately analyzed on the cytometer with the CellQuest Pro software (Becton Dickinson). MTG fluorescence was collected in the FL-1 channel (530 +/- 15 nm) and analyzed in logarithmic amplifier mode, using the PMT at a voltage adjusted to 907. Data from 20,000 gated mitochondria were recorded and analyzed.
Mitochondrial size was analyzed through the light scattered by the organelles at low angle using the Forward scatter (FSC) photodiode. Signals were collected using the E-00 setting, with a logarithmic amplification gain of 5.41. Mitochondrial structure was evaluated by the light scattered in the perpendicular direction. It was assessed by the sensitive Side scatter (SSC) photomultiplier tube (PMT), using a voltage of 581, and a linear amplification gain adjusted to 4.27. The morphological changes related to swelling of purified mitochondria were monitored by the increase in mitochondrial size (FSC) and the decrease in the organelle structure (SSC) using the CellQuest Pro software. The FSC/SSC ratio was calculated by the FCS Assistant software and permitted to integrate both variations in size and structure into only one parameter.
Fixed-time analyses were performed on mitochondrial samples containing 10 µg proteins in 100 µl of swelling buffer. Samples were submitted to MPP-inducing reagents for 30 min at 25°C. Samples were immediately analyzed by flow cytometry, and data from 20.000 mitochondria were recorded. The percentage of specific swelling determined on forward scatter was calculated as follows; (FSCCa2+ - FSCReagent ) x 100 / (FSCCa2+ - FSCCo), were FSCCa2+, FSCReagent and FSCCo correspond to the FSC values obtained for CaCl2- treated, reagent - treated and untreated mitochondria respectively. Similar calculation was used to determine the percentage of specific swelling on SSC and FSC/SSC ratio values.
Real-time experiments were performed on mitochondrial samples containing 1.5 µg proteins in 800 µl (= 2 ng / […]l) of swelling buffer. Samples were acquired on the flow cytometer for 5 minutes to record basal morphological criteria. Then reagents were added to samples, and variations in light scattering were recorded for the following 15 minutes. The sample flow rate was settled to 12 µl +/- 3 µl / min for both fixed- and real-time analyses. […]

[2] = tested on: purified mouse liver mitochondria; test: Flow cytometric analysis of mitochondrial transmembrane potential (JC-1) on isolated mitochondria; settings: for changes of JC-1 fluorescence (ΔΨm): real-time, 20 µM mClCCP, 30 µM Ca2+ or alamethicin
Description: as §1
Mitochondrial transmembrane potential (ΔΨm) was assessed by 5,5',6,6',-tetracholoro-1,1,3,3'-tetraethylbenzimidazolyl carbocyanine iodide (JC-1, Molecular Probes) incorporation. This potential-sensitive cationic dye accumulates in the mitochondrial matrix according to the Nernst equation (Reers et al., 1991). JC-1 green fluorescence, associated with JC-1 monomers was collected in the FL-1 channel. JC-1 orange fluorescence, associated with the formation of J-aggregates was collected in the FL-2 channel (585 +/- 21 nm) (Reers et al, 1991). Both fluorescences were recorded in logarithmic amplifier mode, using the PMT at a voltage adjusted to 907 and 622 respectively. Spectral overlap was avoided by adjusting compensation network as follows: FL1 - 18.5% FL2 and FL2 - 25.4% FL1. The JC-1 orange green fluorescence ratio was calculated with the FCS Assistant software.
Fixed-time detection of ΔΨM was performed on mitochondrial samples containing 10 µg proteins in 100 µl of swelling buffer. Samples were submitted to MPT-inducing drugs for 15 min at 25°C, and JC-1 was added at 800 nM for 15 min at 37°C in the dark. Samples were immediately analyzed by flow cytometry, and data from 20.000 mitochondria (gated on FSC-SSC parameters) were recorded. This assay permitted to quantify the percentage of highly energized mitochondria (with both orange and green fluorescence) and depolarized mitochondria (with green fluorescence only) as depicted in part C2 of Fig.1.
Real-time monitoring of ΔΨm was performed on mitochondrial samples containing 1.5 µg proteins in 400 µl of swelling buffer. JC-1 loading was performed at 400 nM in for 15 minutes at 37°C. […] Then drugs were added to the sample, and ΔΨm variations were recorded for the following 16 minutes. Depolarization curves were drawn as previously indicated for swelling curves; the time scale was divided into discrete periods of 1 minute and the mean of JC-1 orange and JC-1 green fluorescence of the corresponding mitochondrial subsets was calculated by the CellQuest Pro software and exported into the Microsoft Excel software.

[3] = 50 µM BA or 10 µM CsA 5 minutes, then 30 min Ca2+ (30 µM)

N#CC(C#N)=NNc1cccc(Cl)c1 [CCCP, carbonyl cyanide meta-chlorophenylhydrazone]
changes of mitochondrial size (FSC) and structure (SSC) [1]: low but significant granularity (SSC) decrease without detectable size (FSC) changes
changes of JC-1 fluorescence (ΔΨm) [2]: rapid decrease in JC-1 orange fluorescence and a slow decrease in monomeric JC-1 green fluorescence

[Ca+2].[Cl-].[Cl-] [Calcium, CaCl2]
changes of mitochondrial size (FSC) and structure (SSC) [1]: dose-dependent SSC decrease and FSC increase
changes of JC-1 fluorescence (ΔΨm) [2]: a decrease in JC-1 orange fluorescence and a significant increase in JC-1 green fluorescence

N.N.N.N.N.N.N.N.N.N.N.N.N.N.[Cl-].[Cl-].[Cl-].[Cl-].[Cl-].[Cl-].[O-2].[O-2].[Ru+3].[Ru+3].[Ru+4] [Ruthenium red]
effect on alamethicin induced MMP [1]: not affected

CO[C@H](C/C=C\C=C\CC/C=C/C[C@H](C)/C=C/C(=C\C(=O)O)CC(=O)O)/C(C)=C\C=C(/C)C(=O)O [bongkrekic acid]
effect on Ca2+ induced SSC decrease [1, 3]: partly affect
effect on alamethicin induced MMP [1]: not affected
effect on Ca2+ induced ΔΨm loss [2, 3]: strongly reduces

alamethicin
changes of mitochondrial size (FSC) and structure (SSC) [1]: simultaneous FSC increase and SSC decrease
changes of JC-1 fluorescence (ΔΨm) [2]: a decrease in JC-1 orange fluorescence and a significant increase in JC-1 green fluorescence
